Results taken from PMC12430443, “Discovery of Novel Benzamide-Based Sigma-1 Receptor Agonists with Enhanced Selectivity and Safety” (Molecules, 2025).

How the values were obtained:
[1] = molecular target: serotonin 5-HT2A receptor (Homo sapiens, UniProt P28223); assay: Off-target panel, aequorin functional assay; type: cell-based; settings: 10 µM, duplicate; % inhibition of reference agonist activity
Procedure: Among the synthesized compounds, four derivatives were selected based on their affinity and selectivity profiles. […] The remaining compounds (2, 3, 6, and 7) were assessed for their agonist and antagonist activities across a panel of 58 receptors relevant to CNS disorders, including serotonin, adenosine, adrenergic, cannabinoid, dopamine, histamine, and muscarinic receptors. These assays were conducted at a concentration of 10 µM, in duplicate, utilizing aequorin [19], cAMP HTRF™ [20], and GTPγS binding assays, as detailed in Table 2. […] Specifically, compound 6 antagonized four receptors (5-HT2A, 5-HT2C, α1a, H1), while compound 7 was active against five receptors (5-HT2A, 5-HT3, α1a, H1, M1).
Rapidly, the tests were performed by Euroscreen (https://euroscreenfast.com/) with recombinant human G-coupled receptor-expressing cell lines using aequorin functional assays for serotonin 5-HT2A, 5-HT2B, 5-HT2C, 5-HT3, and 5-HT5A, adrenergic α1a and α1b, angiotensin AT1, cholesistokinin CCFK1, endothelin ETA, histamine H1, muscarinic M1 and M3, neurokinin NK1 and NK2, vasopressin V1a, and vasoactive intestinal peptide VPAC1 receptor analysis. Then, cAMP HTRF^TM assays were used to analyze serotonin 5-HT1A, 5-HT4E, 5-HT6, and 5-HT7, adenosine A1, A2A, and A3, adrenergic β1 and β2, cannabinoid CB1, dopamine D1, histamine H2, and neuropeptide Y NPY receptors. GTPγS^35 assays were used to analyze serotonin 5-HT1B, adrenergic α2a and α2b, dopamine D2, muscarinic M2 and M4, opioid δ, κ and µ, and somatostatine SST4 receptors.
Agonist and antagonist activities of the test compound are expressed as the percentage of the activity of the reference agonist at its EC100 concentration or the percentage of inhibition of the reference agonist activity at its EC80 concentration, respectively.
For the aequorin assays, different cell lines co-expressing the receptors were grown in specific culture media and incubated for 4 h with coelenterazine h. For agonist testing, cell suspensions were mixed with test or reference agonists in a 96-well plate. For antagonist testing, the reference agonist at its EC80 (final concentration) was injected to the mix the containing cells and the tested compound. The resulting emission of light was recorded using the Hamamatsu Functional Drug Screening System 6000 [19].

[2] = Cytotoxicity, MTT/MTS assay; type: cell-based, human; settings: human, SH-SY5Y neuroblastoma cells; percentage of cell death after 24 h treatment at 100 µM (duplicate); read-out: SY5Y % Cytotox
Procedure: (§1) To assess potential cytotoxicity in CNS-relevant cells, human neuroblastoma (SH-SY5Y) cells were exposed to compounds 2–7 at concentrations up to 100 μM. Cell viability was measured using the MTT assay.
(§2) Cytotoxicity was assessed in human SH-SY5Y neuroblastoma cells cultured in Dulbecco’s Modified Eagle Medium (DMEM, Gibco, Thermo Fisher Scientific Inc., Waltham, MA, USA) supplemented with 2 mM L-glutamine, 100 μg/mL streptomycin, 100 IU/mL penicillin, 1 mM non-essential amino acids (all from Invitrogen, Thermo Fisher Scientific Inc., Waltham, MA, USA), and 10% (v/v) heat-inactivated fetal bovine serum (Sigma-Aldrich, Burlington, MA, USA). Cells were maintained at 37 °C in a humidified 5% CO2 atmosphere and serum-starved for 24 h to synchronize cultures before treatment with the test compounds at final concentrations of 100, 50, 10, 5, 1, 0.5, 0.1, or 0.05 μM (all in <0.1% DMSO). […] Absorbance was measured at 490 nm, and the results were expressed as a percentage relative to untreated control cells (set at 100%).

[3] = tested on: SH-SY5Y neuroblastoma cells; assay: Cytotoxicity, MTT/MTS assay; type: cell-based, human; settings: selectivity index; IC50 was considered > 100 µM
Procedure: as §1, §2

S1R-BiP complex = molecular target: T1, S1R-BiP complex (Cricetulus griseus, UniProt A0A3L7I3A5); assay: S1R-BiP complex dissociation, co-immunoprecipitation and BiP ELISA in CHO cells; type: cell-based; settings: for Dissociation of the S1R-BiP complex (in words): 1 and 10 µM, 30 min incubation, CHO cells, n = 6
T1 construct: host or cells: CHO cells
T1 sequence (A0A3L7I3A5 1-223, one chain of several): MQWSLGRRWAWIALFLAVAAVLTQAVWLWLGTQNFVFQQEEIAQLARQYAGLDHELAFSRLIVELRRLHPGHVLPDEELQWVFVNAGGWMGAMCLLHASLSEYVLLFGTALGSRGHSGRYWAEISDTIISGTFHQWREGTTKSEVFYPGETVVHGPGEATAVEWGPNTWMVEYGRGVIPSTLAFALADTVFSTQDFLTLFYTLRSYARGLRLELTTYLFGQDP
Procedure: The interaction between S1R and BiP provides a reliable assay to identify S1R ligands by monitoring the dynamics of the S1R-BiP complex. In this assay, the known S1R agonist PRE-084 and antagonist NE-100 were used as controls (Figure 3).
The ability of the compounds to promote dissociation of the S1R–BiP complex was assessed by Amylgen (Montferrier-sur-Lez, France) as described in [22, 23]. CHO cells were treated with the test compounds for 30 min at 37 °C, followed by crosslinking with dithiobis(succinimidyl propionate) (DSP; Thermo Scientific, Waltham, MA, USA). Cells were lysed after 15 min on ice, and the lysates were centrifuged. Supernatants were incubated overnight at 4 °C with an anti-S1R antibody (Abcam, Cambridge, UK), and then with Protein A-Sepharose (Invitrogen). After the first centrifugation, pellets were resuspended in radioimmunoprecipitation assay (RIPA) buffer, centrifuged again, and resuspended in 2× sample buffer/bMCE buffer. Following a third centrifugation, the supernatants were analyzed for BiP immunoreactivity using an ELISA kit (SEC343Mu, USCNK Life Sciences, Wuhan, China).
Figure 3 In vitro evaluation of agonist activity of compounds 2, 3, and 6: The effects of compounds 2, 3, and 6 at 1 and 10 µM on the S1R-BiP association after 30 min of incubation were analyzed by co-immunoprecipitation using an anti-S1R antibody (red). BiP levels were quantified by ELISA. PRE-084 (white) and NE-100 (black) served as the reference agonist and antagonist, respectively (10 µM). Agonist activity was confirmed by its blockade with NE-100 (black hatching). […] Data represent the mean ± SEM from n = 6 per condition. Statistical significance was assessed using Dunnett’s test: *** p < 0.0001, * p < 0.05 vs. untreated control; ### p < 0.0001, # p < 0.05 for NE-100 blockade.

Chain of serotonin 5-HT2A receptor (P28223 whole entry): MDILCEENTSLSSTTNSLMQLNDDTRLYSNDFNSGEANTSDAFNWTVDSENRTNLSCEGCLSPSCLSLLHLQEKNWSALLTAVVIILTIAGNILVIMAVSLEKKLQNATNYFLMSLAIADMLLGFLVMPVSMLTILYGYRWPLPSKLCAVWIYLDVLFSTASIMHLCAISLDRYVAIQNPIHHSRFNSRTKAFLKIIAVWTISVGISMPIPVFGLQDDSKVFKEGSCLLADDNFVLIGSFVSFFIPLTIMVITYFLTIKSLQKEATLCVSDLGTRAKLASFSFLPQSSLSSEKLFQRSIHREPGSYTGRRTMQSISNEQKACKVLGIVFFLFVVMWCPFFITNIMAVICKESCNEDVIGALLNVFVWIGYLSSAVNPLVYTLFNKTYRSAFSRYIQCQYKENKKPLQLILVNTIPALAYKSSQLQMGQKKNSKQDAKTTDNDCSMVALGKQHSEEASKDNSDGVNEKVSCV

Compound | 5-HT2A [b] antagonist activity [1] | cytotoxicity at 24 h, 100 µM [2] [%] | IC50 (SY5Y)/ Ki (S1R) [3] | Dissociation of the S1R-BiP complex (in words) (S1R-BiP complex) | Dissociation of S1R-BiP complex in the presence of NE-100 (in words) (S1R-BiP complex; co-treatment with NE-100 (10 µM))
CN(CCC(=O)NCc1cccc(Cl)c1)Cc1ccccc1 [Compound 2, 3-(Benzylmethylamino)-N-(3-chlorobenzyl)propanamide] | 72% | 12 | >166,666 | significant, dose-dependent dissociation | completely inhibited
CN(CCC(=O)NCc1ccc(C#N)cc1)Cc1ccccc1 [Compound 6, 3-(Benzylmethylamino)-N-(4-cyanobenzyl)propanamide] | antagonized | 8 | >17,857 | slight and less significant reduction | 
